Data published in patent US20250057928A1, “VACCINE COMPOSITION FOR INDUCING ANTI-IL-23 ANTIBODY” (OSAKA UNIVERSITY, priority 2021, published 2025).
Where no end group is shown, it is not given here.

Experiments:
[1] = system: splenocytes; experiment: ELISPOT assay for T cell activation (IFN-γ, IL-4) in splenocytes of administered mice; type: cell-based, mouse; conditions: splenocytes 7 weeks after first administration, stimulated with 10 μg/mL AJP001 alone or 10 μg/mL AJP001 conjugated peptide
Method: In addition, ELISPOT assay was performed to evaluate T cell activation. AJP001 conjugated peptide (SEQ ID NO: 2) or physiological saline was administered three times at two-week intervals to BALB/c mice (female, 6-week-old, N=3-4), and the spleen was collected 7 weeks after the first administration. The collected spleen was triturated using a syringe barrel and a cell strainer. This was washed with and suspended in HBSS (−), erythrocytes were removed using ACK Buffer (Thermo fisher scientific), and splenocytes were isolated. Using Mouse IFN-γ ELISpot assay kit and Mouse IL-4 ELISpot assay kit (R&D systems), the cells were prepared to 2.5×10^6 cells/mL with 10% FBS/1% penicillin/streptomycin/4 ng/mL rmIL-2-containing RPMI1640 medium (culture medium), and seeded at 100 μL/well on the 96-well plate of which each capture antibody was immobilized. Splenocytes were stimulated by adding (1) medium alone, (2) 10 μg/mL T cell antigen AJP001 (SEQ ID NO: 38) alone, (3) 10 μg/mL AJP001 conjugated peptide (SEQ ID NO: 2), or (4) 100 ng/mL PMA/ionomycin (PMA/IM, Sigma) to each well. Stimulation was performed for 2 days in a […]. Then, a detection antibody was added and, after washing, a colorimetric reaction was performed. The stained cells were measured with a microscope. The number of IFN-γ and IL-4 positive cells was calculated as the number of cells per 10^6 cell number (SFC/10^6 cells). In FIG. 2, “*” means significant (P<0.05).
In addition, AJP001 conjugated peptide (SEQ ID NO: 6) or physiological saline was administered three times at two-week intervals to BALB/c mouse (female, 6-week-old, N=3-4), and the spleen was collected 7 weeks after the first administration. The collected spleen was subjected to ELISPOT assay using Mouse IFN-γ ELISpot assay kit and Mouse IL-4 ELISpot assay kit (R&D systems).

[2] = system: epitope peptide; experiment: Antibody titer (GMT) of serum of mice administered AJP001 conjugated peptide, ELISA; type: in vivo, mouse; conditions: BALB/c mice, no adjuvant; for antibody titer (GMT) over time: 1 mg/body intradermal 3 times at two-week intervals, blood every 2 weeks until 8 weeks
Method: AJP001 conjugated peptide having one of the B cell epitope sequences of SEQ ID NOs: 1-5 was dissolved in physiological saline and intradermally administered twice to BALB/c mice (female, 6-week-old, N=5-6) at 0.5 mg/body at 2-week intervals. Blood was collected before administration and 5 weeks after the initial administration, and the antibody titer against each AJP001 conjugated peptide and the binding ability to recombinant mouse IL-23 protein (rmIL-23) were measured by the ELISA method. Specifically, a 96-well plate immobilized with an epitope peptide dissolved at 10 μg/mL in carbonate buffer was blocked with 5% skim milk/PBS, and then serum serially diluted with 5% skim milk/PBS was added, and the mixture was left standing at 4° C. overnight. After washing the wells with PBS-T, HRP-labeled anti-mouse IgG antibody (GE Healthcare) diluted with 5% skim milk/PBS was added and the mixture was shaken at room temperature for 3 hr. After washing the wells with PBS-T, TMB solution (SIGMA) was added, the wells were allowed to stand for 30 min in the dark, the reaction was stopped by adding 0.5M H2SO4, and the absorbance at 450 nm was measured using a plate reader. The serum dilution rate that gave 1/2 (OD=1.75) of the maximum absorbance was defined as the antibody titer, and the geometric mean titer: GMT was calculated from the individual values. Binding to IL-23 protein was measured by the ELISA method in the same manner as the antibody titer, using rmIL-23 (Antibodies-online GmbH) as the solid-phased antigen and goat serum for blocking.
AJP001 conjugated peptide (SEQ ID NO: 2) was dissolved in physiological saline and intradermally administered to BALB/c mice (female, 6-week-old, N=6) at 1 mg/body 3 times at two-week intervals, and blood was collected every 2 weeks until 8 weeks. The antibody titer (GMT) of all the collected sera and the binding ability to rmIL-23 of the serum at the time point of 6 weeks were measured by the ELISA method (same method as in Example 1). The antibody titer and the binding of the induced antibody to rmIL-23 at each time point are shown in FIGS. 2 (a) and (b), respectively.
AJP001 conjugated peptide (SEQ ID NOs: 6-37) was dissolved in physiological saline, mixed with an equal amount of 2% Alhydrogel (invivogen), and this was intradermally administered to BALB/c mice (female, 6-week-old, N=5-6) at 0.5 mg/body 3 times at two-week intervals. Blood was collected before administration and at the time point of 6 weeks after initial administration, and the antibody titer (GMT) to each epitope sequence and binding ability to recombinant human IL-23 protein (rhIL-23) (Peprotech) were measured by the ELISA method (same method as in Example 1). The binding to rhIL-23 was evaluated by a binding ratio to normal serum by calculating the ratio of the absorbance of a well added with normal mouse serum to the absorbance of a well added with antiserum derived from a mouse administered with each AJP001 conjugated peptide (SEQ ID NOs: 6-37). In addition, the neutralization activity of mouse antiserum was evaluated using an action on IL-17 production in rhIL-23 stimulated mouse splenocyte as an index. The spleen of normal BALB/c mouse (female, 5-week-old, N=3) was triturated using a syringe barrel and a cell strainer and washed with and suspended in HBSS (−). Erythrocytes were then removed using ACK Buffer (Thermo fisher scientific), and splenocytes were isolated. The splenocytes were prepared to 2.5×10^6 cells/mL with 10% FBS/1% penicillin/streptomycin/4 ng/mL rmIL-2-containing RPMI1640 medium (culture medium), and seeded in a 96 well plate at 100 μl/well. The antiserum (final concentration 15-fold) of the mice administered with each AJP001 conjugated peptide and rhIL-23 (final concentration 10 ng/ml) were added to the culture medium, reacted at 37° C. for 2 hr, added at 100 μL/well to a 96-well plate seeded with splenocytes, and cultured for 3 days in a 37° C./5% CO2 incubator. […]

Substance	number of IFN-γ positive cells [1]	number of IL-4 positive cells [1]	antibody titer ([2]; 0.5 mg/body intradermal twice at 2-week intervals, 5 weeks after initial administration)	antibody titer (GMT) over time [2]
SEQ ID NO 2: AJP001-Ahx-B cell epitope peptide conjugate; epitope SSSQQWQR (mouse 152-159) (not fully specified (N-terminus); listed as Mus musculus)	increase	increase	significant increase	increased from the 2nd week and persisted until the 8th week
SEQ ID NO 6: AJP001-Ahx-B cell epitope peptide conjugate; epitope SPSQPWQR (human 151-158) (not fully specified (N-terminus); listed as Homo sapiens)	increase	increase		increased from the 2nd week and persisted until the 8th week
